Assay results published in patent US20240279232A1, “USE OF SUBSTITUTED 5-(4-METHYL-6-PHENYL-4H-BENZO[F]IMIDAZO[1,5-A][1,4] DIAZEPIN-3-YL)-1,2,4-O[…] THE TREATMENT OF INFLAMMATORY CONDITIONS” (priority 2021, published 2024).
Read-outs that look alike come from different tables or passages of the source.

Assays:
DOR (δ opioid receptor) = target: T1, DOR (δ opioid receptor) (Homo sapiens, UniProt P41143); test: DOR radioligand binding ([3H]-DADLE, HEK293 cell homogenates); details: Percent inhibition at 10,000 nM; [3H]-DADLE
T1 construct: expressed in transfected cells; host or cells: HEK293
Experimental: (§1) Radioligand binding assays. Detailed protocols for the primary and secondary radioligand binding assays can be found in the National Institute of Mental Health's Psychoactive Drug Screening Program (NIMH PDSP) Assay Protocol Book (Roth, 2018). Briefly, primary and secondary radioligand binding assays are carried out in a final of volume of 125 μL per well in appropriate binding buffer. […] Total binding and nonspecific binding are determined in the absence and presence of 10 μM of appropriate reference compound (Naltrindole DOR, Salvinorin A KOR and DAMGO MOR). In brief, plates are usually incubated at room temperature and in the dark for 90 min. Reactions are stopped by vacuum filtration onto 0.3% polyethyleneimine (PEI) soaked 96-well filter mats using a 96-well Filtermate harvester, followed by three washes with cold PBS buffer. Scintillation cocktail is then melted onto the microwave-dried filters on a hot plate and radioactivity counted in a Microbeta counter. The data (n=6) were analyzed by nonlinear regression.
(§2) Ligand affinities were determined for KOR (κ opioid receptor), DOR (δ opioid receptor), and MOR (μ opioid receptor) using radioligand binding assays at a screening concentration of 10,000 nM. For these assays, cell homogenates from HEK293 cells that overexpressed KOR, MOR, and DOR were used in combination with [^3H]-U69593, [^3H]-DAMGO, and [^3H]-DADLE, respectively Compounds that exceeded more than 50% radioligand displacement were investigated further in concentration-dependent experiments to determine Ki values. Gamma aminobutyric acid type A receptor (GABAAR) binding was determined with rat brain homogenate and ^3H-flunitrazepam. Flunitrazepam binds GABAAR subtypes that consists of two α and two β subunits and one γ or δ subunit. Strong affinities to α1-3,5,6β1-3γ1-y/δ GABAARS have been reported for flunitrazepam. The […] GABAAR subtype expression in the brain includes 43% α1β2γ2, 15% α2β3γ2+8% α2βγ1, 10% α3β3γ2, 6% α4βγ/δ, 4% α5β3γ2, and 4% α6β2γ2/δ. Therefore, compounds with high affinity toward the synaptic benzodiazepine-sensitive receptors (BZR) predominately bind α1-3β2-3γ1-2 GABAARs. Alternatively, compounds with weak BZR binding might be selective for α4-6βγ/δ GABAARs.
(§3) Psychoactive Drug Screening Program. Detailed protocols for the primary and secondary radioligand binding assays can be found in the National Institute of Mental Health's Psychoactive Drug Screening Program (NIMH PDSP) Assay Protocol Book. Briefly, primary and secondary radioligand binding assays are carried out in a final of volume of 125 μL per well in appropriate binding buffer. The radioactive ligand concentration is close to the Kd. Total binding and nonspecific binding are determined in the absence and presence of 10 μM of appropriate reference compound, respectively. In brief, plates are usually incubated at room temperature and in the dark for 90 min. Reactions are stopped by vacuum filtration onto 0.3% polyethyleneimine (PEI) soaked 96-well filter mats using a 96-well Filtermate harvester, followed by three washes with cold PBS buffer. Scintillation cocktail is then melted onto the microwave-dried filters on a hot plate and radioactivity counted in a Microbeta counter. The data (n=6) were analyzed by nonlinear regression.

KOR (κ opioid receptor) = target: T2, KOR (κ opioid receptor) (Homo sapiens, UniProt P41145); test: KOR radioligand binding ([3H]-U69593, HEK293 cell homogenates); details: for inhibition at 10 µM: Percent inhibition at 10,000 nM
T2 construct: expressed in transfected cells; host or cells: HEK293 (stably transfected)
Experimental: as §1, §2, §3

[1] = system: BZR (benzodiazepine site of GABAAR); test: GABAAR/BZR binding, rat brain homogenate with 3H-flunitrazepam; details: rat brain homogenate, 3H-flunitrazepam; for BZR %: Percent inhibition at 10,000 nM
Experimental: as §2, §3

MOR (μ opioid receptor) = target: T3, MOR (μ opioid receptor) (Homo sapiens, UniProt P35372); test: MOR radioligand binding ([3H]-DAMGO, HEK293 cell homogenates); details: Percent inhibition at 10,000 nM; [3H]-DAMGO
T3 construct: expressed in transfected cells; host or cells: HEK293
Experimental: as §1, §2, §3

Mouse microglia = test: NO production (Griess assay), LPS/IFNγ-activated mouse microglia; assay type: cell-based; details: with 50 μM MP-IV-010; flumazenil 50 μM, picrotoxin 50 μM, bicuculline 100 μM, SM-21 30 μM, norbinaltorphimine 30 μM
Experimental: Next, a library of GABAAR ligands was investigated to identify compounds that reduce the production of NO as a marker of anti-inflammatory activity. […] NO was quantified with a Greiss assay. Cell viability was determined with CellTiter-Glo.
Cell culture. A) HMC3 Microglia (CRL-3304) were maintained in treated cell culture flasks (Nunc, 156472) with EMEM (Corning, 10010CV) supplemented with 10% heat-inactivated FBS (Corning, 35011CV) and 100 U/mL penicillin and 100 μg/mL streptomycin (Hyclone, SV30010). Cultures were maintained at 37° C. and 5% CO2. When cells reached a density of 7×10^4 cells/mL, cultures were passaged with 0.25% Trypsin (Corning, 25-053-CI) and resuspended to a density no lower than 10,000 cells/mL. B) Human and mouse microglia cell lines were a gift from Dr. David Alvarez-Carbonell at Case Western Reserve University (Cleveland, OH). Microglia were cultured in cell culture treated flasks (Nunc, 156472) with DME/F12 media (Hyclone, SH30023.01) supplemented with 10% heat-inactivated FBS (Corning, 35011CV), 100 U/mL penicillin/100 μg/mL streptomycin (Hyclone, SV30010), and Normocin (Invivogen, ant-nr). Cultures were maintained at 37° C. and 5% CO2. […] Cultures were maintained at 37° C. and 5% CO2. Cells were passaged when they reached a density of approximately 3×10^6 cells/mL using cell scrapers (VWR, 10062-906) to lift cells from flask surface and resuspended at densities of approximately 500,000 cells/mL.
Nitric oxide production (Griess assay) and viability assay (CellTiter-Glo). 80 μL of mouse microglia culture (1×10^6 cells/mL) was plated into sterile 384 well plates representing non-activated wells. The remaining culture was activated with 50 ng/ml LPS (Invivogen, NC9836) and 150 U/mL IFNγ (R&D Systems, 485MI100) and distributed into the 384 well plates. […] Assay plates were incubated for approximately 24 hours (unless otherwise noted) at 37° C., centrifuged, and 40 μL of supernatant transferred to a new plate for analysis using the Griess Assay (Promega, Madison, WI). Absorbance at 530 nm was measured using a TECAN Infinite M1000 plate reader. The remaining 40 μL containing cells was analyzed for toxicity by the CellTiter-Glo Assay (Promega, Madison, WI). Luminescence was read using a TECAN Infinite M1000 plate reader.

[2] = concentration-dependent, [3H]-U69593, read-out: KOR (Ki)

T3 sequence (P35372 whole entry, species assumed): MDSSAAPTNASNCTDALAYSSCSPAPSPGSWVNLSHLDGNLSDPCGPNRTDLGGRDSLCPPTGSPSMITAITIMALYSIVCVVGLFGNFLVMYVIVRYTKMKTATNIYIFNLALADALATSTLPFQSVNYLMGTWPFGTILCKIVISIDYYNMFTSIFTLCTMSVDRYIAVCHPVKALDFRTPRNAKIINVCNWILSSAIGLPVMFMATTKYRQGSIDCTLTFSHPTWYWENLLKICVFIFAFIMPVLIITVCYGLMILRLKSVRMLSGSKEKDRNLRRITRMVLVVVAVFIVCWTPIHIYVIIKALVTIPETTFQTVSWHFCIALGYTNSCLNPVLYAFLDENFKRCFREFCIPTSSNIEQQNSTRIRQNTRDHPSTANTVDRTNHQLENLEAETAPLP
T1 sequence (P41143 whole entry): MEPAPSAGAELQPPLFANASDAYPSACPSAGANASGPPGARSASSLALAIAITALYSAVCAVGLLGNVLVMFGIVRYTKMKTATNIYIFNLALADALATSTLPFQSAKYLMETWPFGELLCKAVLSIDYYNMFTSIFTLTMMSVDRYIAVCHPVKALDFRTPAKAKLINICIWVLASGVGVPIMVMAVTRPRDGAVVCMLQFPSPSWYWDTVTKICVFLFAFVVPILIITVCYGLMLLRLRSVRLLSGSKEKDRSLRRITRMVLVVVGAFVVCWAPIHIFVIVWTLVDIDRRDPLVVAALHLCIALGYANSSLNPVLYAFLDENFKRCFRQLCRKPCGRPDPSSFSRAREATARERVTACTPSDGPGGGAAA
T2 sequence (P41145 whole entry): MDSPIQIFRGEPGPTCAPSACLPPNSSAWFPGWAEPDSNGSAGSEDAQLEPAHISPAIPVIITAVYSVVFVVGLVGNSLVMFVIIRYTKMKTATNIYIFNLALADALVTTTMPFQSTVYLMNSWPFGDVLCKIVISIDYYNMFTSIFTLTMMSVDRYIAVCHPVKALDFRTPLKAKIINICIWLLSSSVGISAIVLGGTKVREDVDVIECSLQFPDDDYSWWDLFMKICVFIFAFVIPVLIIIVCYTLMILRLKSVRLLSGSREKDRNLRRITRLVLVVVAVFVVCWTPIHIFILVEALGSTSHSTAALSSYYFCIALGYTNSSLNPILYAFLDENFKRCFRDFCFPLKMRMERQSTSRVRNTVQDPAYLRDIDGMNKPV

Molecule	inhibition at 10 µM (DOR (δ opioid receptor)) [%]	inhibition at 10 µM (KOR (κ opioid receptor); [3H]-U69593) [%]	Ki (KOR (κ opioid receptor); [2]) [nM]	BZR % [1] [%]	Ki [1] [nM]	inhibition at 10 µM (MOR (μ opioid receptor)) [%]	Ki (KOR (κ opioid receptor)) [nM]	reversal of the NO reduction by MP-IV-010 (in words) (Mouse microglia)
C#Cc1ccc2c(c1)C(c1ccccc1F)=N[C@@H](C)c1c(C(=O)OC(C)C)ncn1-2 [GL-I-31]	8	94	65	97	245	32		
C#Cc1ccc2c(c1)C(c1ccccc1F)=N[C@@H](C)c1c(C(=O)OCCC)ncn1-2 [GL-I-32]	14	95	64	98	148	9		
C#Cc1ccc2c(c1)C(c1ccccc1F)=N[C@@H](C)c1c(C(=O)OC(C)(C)CC)ncn1-2 [GL-I-33]	25	94	34	96	117	30		
C#Cc1ccc2c(c1)C(c1ccccc1F)=N[C@@H](C)c1c(C(=O)OCC(F)(F)F)ncn1-2 [GL-I-36]	0	85	411	77	418	8		
C#Cc1ccc2c(c1)C(c1ccccc1F)=N[C@@H](C)c1c(C(=O)OC3CC3)ncn1-2 [GL-I-38]	16	95	68	96	127	18		
C#Cc1ccc2c(c1)C(c1ccccc1F)=N[C@@H](C)c1c(C(=O)NC(C)(C)C)ncn1-2 [GL-I-41]	10	97	39	90	140	40		
C#Cc1ccc2c(c1)C(c1ccccc1F)=N[C@@H](C)c1c(C(=O)NCC)ncn1-2 [GL-I-43]	3	95	102	94	44	22		
C#Cc1ccc2c(c1)C(c1ccccc1F)=N[C@@H](C)c1c(C(=O)N(C)C)ncn1-2 [GL-I-54]	11	78	788	94	90	18		
C#Cc1ccc2c(c1)C(c1ccccc1F)=N[C@@H](C)c1c(C(=O)NC3CC3)ncn1-2 [GL-I-55]	24	93	150	95	20	17		
C#Cc1ccc2c(c1)C(c1ccccc1F)=N[C@@H](C)c1c(C(=O)SCC)ncn1-2 [GL-I-77]	4	95	125	92	124	41		
CCOC(=O)c1ncn2c1[C@H](C)N=C(c1ccccc1F)c1cc(C3CC3)ccc1-2 [GL-I-78]	41	96		76	352	32	48	
C#Cc1ccc2c(c1)C(c1ccccn1)=NCc1c(C(=O)OCC)ncn1-2 [Hz-166]	49	60	3820			6		
CCC(Oc1ccc(Cl)cc1)C(=O)OC1CC2CCC(C1)N2C (centres unmarked) [SM-21, reference compound]								no reversal
CCOC(=O)c1ncn2c1CN(C)C(=O)c1cc(F)ccc1-2 [flumazenil, Flumazenil, reference compound]								did not reverse
Oc1ccc2c3c1O[C@H]1c4[nH]c5c(c4C[C@@]4(O)[C@@H](C2)N(CC2CC2)CC[C@]314)C[C@@]1(O)[C@H]2Cc3ccc(O)c4c3[C@@]1(CCN2CC1CC1)[C@H]5O4 [norbinaltorphimine, reference compound]								reversed the effects of MP-IV-010
picrotoxin [reference compound]								did not reverse
